{"source": "patent US7125886B2", "about": "“5-HT3 receptor antagonists and methods of use” (Aryx Therapeutics, priority 2002, dated 2006)", "origin": "cited, not measured here", "key": {"[1]": {"settings": "at least 12 weeks of treatment, patients with IBS"}, "[2]": {"settings": "up to 3 months of treatment; versus placebo and mebeverine"}, "[3]": {"settings": "received by the FDA"}, "5-HT3 receptor": {"molecular_target": "T1, 5-HT3 receptor (Homo sapiens, UniProt P46098)", "T1 sequence (P46098 24-478)": "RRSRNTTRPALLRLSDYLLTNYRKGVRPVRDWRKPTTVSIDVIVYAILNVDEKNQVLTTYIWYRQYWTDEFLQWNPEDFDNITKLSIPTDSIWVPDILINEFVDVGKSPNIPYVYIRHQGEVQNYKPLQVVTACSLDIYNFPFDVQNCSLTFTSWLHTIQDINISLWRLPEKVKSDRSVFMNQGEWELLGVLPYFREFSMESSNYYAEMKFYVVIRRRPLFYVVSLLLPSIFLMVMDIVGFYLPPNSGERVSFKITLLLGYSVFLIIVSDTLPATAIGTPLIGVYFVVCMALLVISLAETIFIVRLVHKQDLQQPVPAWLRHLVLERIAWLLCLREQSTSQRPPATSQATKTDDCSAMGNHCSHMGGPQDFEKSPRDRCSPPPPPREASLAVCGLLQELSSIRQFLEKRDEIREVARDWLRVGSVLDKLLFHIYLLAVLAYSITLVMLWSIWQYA"}}}
{"compound": "Cc1[nH]cnc1CN1CCc2c(c3ccccc3n2C)C1=O", "note": "[Alosetron, 2,3,4,5-tetrahydro-5-methyl-2-[(5-methyl-1H-imidazol-4-yl)methyl]-1H-pyrido [4,3-b]indol-1-one]", "values": [{"measurement": "constipation, patients with adverse event", "setting": "[1]", "value": 28, "unit": "%"}, {"measurement": "improving perception of visceral pain, spasms and diarrhea", "setting": "[2]", "value": "significantly superior"}, {"measurement": "greater drug exposure in females than males", "setting": "females compared with males", "value": 60, "unit": "%"}, {"measurement": "mean peak plasma concentration higher in females", "setting": "females compared with males", "value": "45–100%"}, {"measurement": "half-life", "setting": "in vivo", "value": 1.5, "unit": "h"}, {"measurement": "oral bioavailability", "setting": "oral", "value": "approximately 60%"}, {"measurement": "reports of deaths associated with alosetron", "setting": "[3]", "value": 3}]}
{"compound": "Cc1[nH]cnc1CN1CCc2c(c3cccc(O[C@@H]4O[C@H](C(=O)O)[C@@H](O)[C@H](O)[C@H]4O)c3n2C)C1=O", "note": "[6-OH-alosetron glucuronide]", "values": [{"measurement": "5-HT3 receptor binding affinity", "setting": "5-HT3 receptor", "value": "potent"}]}
{"compound": "Cc1[nH]cnc1CN1CCc2c(c3cccc(O)c3n2C)C1=O", "note": "[6-Hydroxy-alosetron]", "values": [{"measurement": "potency relative to alosetron", "setting": "5-HT3 receptor", "value": "twice as potent as alosetron"}]}
